Test results published in the supplement of paper PMC11208160.

assay: recombinant barcode read abundance after kanamycin selection (control-corrected) (log10(CPM+1)); higher = more efficient recombination; sequences stand for … in AGTGCAGAGAAAATCGGCCAGTTTTCTCTGCCTGCAGTCCGCATGCCGT…AGATTTATGCAGCGGACTGCCTTTCTCCCAAAGTGATAAACCGGACAGTATCATGGACCGGTTTTCCCGGTAATCCGTATTTGCAAGGTTGGTTTCACT; site = the 11-nt target
Procedure: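 Pooled E. coli target-specificity screen for the IS621 bridge recombinase. Each library plasmid pairs an 11-nt target (CT core) with a bridge RNA whose target-binding loop (9-nt LTG + 4-nt RTG) is reprogrammed; the rest of the 177-nt WT IS621 bridge RNA scaffold is fixed. The plasmid is co-electroporated with a WT donor plasmid; recombinase is induced with 0.1 mM IPTG and recombinants are selected on kanamycin. Recombinant barcodes are sequenced, converted to CPM, averaged over two biological replicates and corrected by the unselected control CPM. Molecule = full bridge RNA written as DNA: LTG = specificity nt 1-9, RTG = reverse complement of specificity nt 8-11, in the WT scaffold.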
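Further: IS621 recombinase and bridge RNA in Escherichia coli cells.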

In order of rising “recombinant barcode read abundance (log10)” value:
1. ACTATGTCTTGGGTTCTAACCTGTTGCCA (site CCTATGTCTTA)  0.00838
2. ACTAGCTCTTGGGTTCTAACCTGTTGCCT (site ACTTGCTCTAA)  0.0142
3. ACGTCCACTTGGGTTCTAACCTGTTGCCA (site GGAAGGTCTAT)  0.025
4. ACGTCGTCTTGGGTTCTAACCTGTTGCCT (site AAGTCGTCTAG)  0.0262
5. ACGTTGCCTTGGGTTCTAACCTGTTGCCT (site ACTTTGCCTAG)  0.0271
6. ACGTCCACTTGGGTTCTAACCTGTTGCCT (site ACGTCCACTAG)  0.0313
7. ACGGTGACTTGGGTTCTAACCTGTTGCCT (site GCGGTGACTAG)  0.0376
8. ACTCCGTCTTGGGTTCTAACCTGTTGCTA (site GCTCCGTCTAA)  0.0432
9. ACGTTGCCTTGGGTTCTAACCTGTTGCCT (site ACCTTGCCTAG)  0.0523
10. ACGGTGACTTGGGTTCTAACCTGTTGCCT (site TCGGTGACTAG)  0.0684
11. ACGTCGTCTTGGGTTCTAACCTGTTGCCT (site ACGTCGTCTAG)  0.0697
12. ACGTCGTCTTGGGTTCTAACCTGTTGCCT (site ATGTCGTCTAG)  0.0865
13. ACTATGACTTGGGTTCTAACCTGTTGCTT (site GACTATCCTCG)  0.0905
14. ACGTCGTCTTGGGTTCTAACCTGTTGCCT (site AGGTCGTCTAG)  0.102
15. ACTGAGTCTTGGGTTCTAACCTGTTGCAT (site ACTGAGTCTTT)  0.109
16. ACTAGAGCTTGGGTTCTAACCTGTTGCCT (site ACAAGAGCTAG)  0.122
17. ACTCAGGCTTGGGTTCTAACCTGTTGCCG (site ACAGAGGCTCG)  0.138
18. ACGTAGACTTGGGTTCTAACCTGTTGCAG (site ACAGAGACTCT)  0.145
19. ACTATGTCTTGGGTTCTAACCTGTTGCCA (site ACTATGTCTTG)  0.147
20. ACGTCCACTTGGGTTCTAACCTGTTGCCA (site ACGTCCACTTG)  0.148
21. ACTACTCCTTGGGTTCTAACCTGTTGCAG (site ACTGGTCCTCT)  0.183
22. ACGTTGCCTTGGGTTCTAACCTGTTGCCT (site ACATTGCCTAG)  0.188
23. ACTAGAGCTTGGGTTCTAACCTGTTGCCT (site ACGAGAGCTAG)  0.197
24. ACTCGACCTTGGGTTCTAACCTGTTGCCT (site ACTAGACCTAG)  0.197
25. ACTAGAGCTTGGGTTCTAACCTGTTGCCT (site ACTAGAGCTAG)  0.198
26. ACTAGAGCTTGGGTTCTAACCTGTTGCCT (site ACCAGAGCTAG)  0.268
27. ACGGTGACTTGGGTTCTAACCTGTTGCCT (site CCGGTGACTAG)  0.298
28. ACGTTGCCTTGGGTTCTAACCTGTTGCCT (site ACGTTGCCTAG)  0.316
29. ACGTCCACTTGGGTTCTAACCTGTTGCCT (site CCGTCGACTAG)  0.317
30. ACGTTACCTTGGGTTCTAACCTGTTGCCT (site ACGATACCTAG)  0.331
31. ACTAGCTCTTGGGTTCTAACCTGTTGCCT (site ACTAGCTCTAG)  0.356
32. ACTACTCCTTGGGTTCTAACCTGTTGCAG (site ACTACTCCTCT)  0.461
33. ACGTTACCTTGGGTTCTAACCTGTTGCCT (site ACGTTACCTAG)  0.501
34. ACTCAGGCTTGGGTTCTAACCTGTTGCCG (site ACTCAGGCTCG)  0.541
35. ACTATGACTTGGGTTCTAACCTGTTGCTT (site ACTATGACTAA)  0.75
36. ACGTAGACTTGGGTTCTAACCTGTTGCAG (site ACGTAGACTCT)  0.802
37. ACTCCGTCTTGGGTTCTAACCTGTTGCTA (site ACTCCGTCTTA)  1.11
38. ACTGAGTCTTGGGTTCTAACCTGTTGCTT (site ACTGAGTCTAA)  1.22
39. ACTCGACCTTGGGTTCTAACCTGTTGCCT (site ACTCGACCTAG)  1.78
40. ACGGTGACTTGGGTTCTAACCTGTTGCCT (site ACGGTGACTAG)  2.24
41. ACTGAGTCTTGGGTTCTAACCTGTTGCAT (site ACTGAGTCTAT)  2.69
